This note sets out measurements from ChEMBL document CHEMBL1150588, “New nitrogenous eudesmane-type compounds isolated from the Caribbean sponge Axinyssa ambrosia” (J Nat Prod, 2002).

As a reminder, the IC50 is the point on the concentration scale where inhibition reaches its midpoint.

Data set [1] has as its system Madracis mirabilis. Put plainly: Toxicity against Madracis mirabilis polyps assessed as mortality at 10 ug/ml after 2 hrs. The conditions noted are these: in vivo.
The subject of another data set is A549. Put plainly: Cytotoxicity against human A549 cells. It is filed as functional, cell-based.
In another data set the test system is P388. Put plainly: Cytotoxicity against mouse P388 cells. It is filed as functional, cell-based.
Data set [2] in a line: Toxicity against Madracis mirabilis polyps assessed as mortality after 2 hrs. It is filed as organism-based. The conditions noted are these: in vivo; read-out: LD50.
Data set [3] deals with Madracis mirabilis. Put plainly: Toxicity against Madracis mirabilis polyps assessed as mortality at 7.75 ug/ml after 2 hrs. The conditions noted are these: in vivo.
For the next data set, the system named is HT-29. Put plainly: Cytotoxicity against human HT-29 cells. It is filed as functional, cell-based.
Data set [4] deals with Madracis mirabilis. Put plainly: Toxicity against Madracis mirabilis assessed as retraction recovery at 10 ug/ml after 48 hrs. The settings on record: in vivo.
Data set [5] deals with Madracis mirabilis. Put plainly: Toxicity against Madracis mirabilis assessed as retracted polyps at 10 ug/ml after 24 hrs. The conditions noted are these: in vivo.

On to `C=C(C)[C@H]1CC[C@@]2(C)CCC[C@@](C)(N)[C@@H]2C1.Cl` (relative stereo), for which the results for the Activity entry with Madracis mirabilis [1] and with Madracis mirabilis [3] were “Toxic” and “Non-toxic”, respectively. The IC50 in the data set on A549, in the data set on P388 and in the data set on HT-29 was 2 µg/mL each time. For the same molecule, the LC50 at 2 h in data set [2] was found to be 9.4 µg/mL.
On to `C=C(C)[C@H]1CC[C@@]2(C)CCC[C@@](C)(N)[C@@H]2C1` (relative stereo), for which the Activity in the data set with Madracis mirabilis [4] is 40%; with Madracis mirabilis [5], “Active”.
